Experimental data published in publication PMC4747383, “Design of a peptidic inhibitor that targets the dimer interface of a prototypic galectin” (Oncotarget, 2015).

Legend:
[1] = tested on: T cell; design: method as in PMID 25277199, PMID 24134186; conditions: ref [38], [50]; cited from earlier work
[2] = tested on: recombinant hGal-7; assay: Disruption of hGal-7 homodimers, native gel electrophoresis/Western blot; assay type: biochemical, human; conditions: for disruption of hGal-7 homodimers by biotinylated peptide: 0.5 μM hGal-7, 20 mM potassium phosphate pH 7.1, 60 min at 4°C, low SDS-PAGE Western blot, representative of two independent experiments
From the text: To measure the ability of the peptides to disrupt the formation of hGal-7 dimers, we used mild denaturing native gel electrophoresis, a commonly used approach to visualize monomer-dimer equilibrium (Fig. 1A and Supplementary Fig. S1). […] This specificity at disrupting hGal-7 dimer formation is provided by distinct three-dimensional arrangements between otherwise very similar galectin homologues. Indeed, while all monomeric galectins reveal identical topologies, dimer formation in hGal-7 proceeds through a “back-to-back” topology of the monomers while other galectins, including hGal-1 and hGal-2, adopt a “side-by-side” structural arrangement (Fig. 1B). This structural organization provides additional means to specifically target and disrupt galectin function.
Incubation of the recombinant B. hGal-1 and C. hGal-2 with hGal-7(129–135) was performed in the same potassium phosphate buffer. The effect of hGal-7(129–135) on the monomeric and dimeric forms of hGal-7/hGal-1/hGal-2 was assessed by Western blotting in native conditions with respective antibodies. The hGal-1/hGal-2 films were overexposed. PACAP28–38 was the control peptide used in order to ensure the specificity of hGal-7(129–135). Recombinant hGal-7 (0.5 μM) was also incubated with increasing concentrations of hGal-7(129–135) in 0.1 mM D. lactose or E. LacNac solutions. Results are representative of three independent experiments.
Human Gal-7 cDNA was cloned into pET-22b(+) using NdeI and HindIII restriction enzymes. Human pET-Gal-1 vector was generously donated by Dr. S. Sato (McGill University, QC, Canada). The proteins were produced in E. coli BL21 (DE3) cells at 37°C. Isopropyl β-D-1-thiogalactopyranoside (IPTG) (1 mM) was added to the bacterial culture at OD600nm = 0.6–0.7 and then incubated for 4 h at 37°C to allow protein production. Bacterial pellets were resuspended in lysis buffer (0.7 mg/mL lysozyme, 10 mM Tris pH 8, 100 mM NaCl, 1 mM EDTA, 1 mM DTT and a protease inhibitor cocktail) and then incubated for 1 h at 37°C prior to centrifugation for 30 min at 15,000 × g (4°C). The supernatant was then filtered with 500 mL bottle top filter ([…]) (Corning, New York, NY, USA) and then ran through a lactose-agarose column (Sigma, St. Louis, MO, USA). The protein was eluted in 1 mL fractions with 150 mM lactose solution. Purified fractions were analyzed by SDS-PAGE. The hGal-7 was then concentrated and purified using Centrifugal filter units (Amicon Ultra-15, 10K) (EMD, Millipore, Etobicoke, ON) in 20 mM potassium phosphate at pH 7.1. All subsequent experiments with the recombinant proteins were performed in the same buffer solution unless mentioned otherwise. Brilliant Coomassie blue was purchased from BioRad (Bio-Rad Laboratories, Mississauga, ON, Canada). The recombinant protein hGal-2 was purchased from MyBiosource (San Diego, CA, USA). […]
gaI-7 (0.5 μM) was incubated with increasing concentrations of biotin-labeled hGaI-7129–135 in 20 mM potassium phosphate buffer (pH 7.1) for 60 min at 4°C beforeWestern blot analysis in low SDS-PAGE using an anti-gaI-7 antibody. B. Similar experiments were carried out using recombinant human B. gaI-1 and C. gaI-2. Results are representative of two independent experiments.
(also on this page, place not known: www.impactjournals.com/oncotarget/ Oncotarget, Materials 2015 Supplementary hGaI-7 129–135.)

[3] = tested on: recombinant hGal-7; assay: Solid phase fluorescent binding assay on hGal-7; design: species or system human; conditions: hGal-7 10 μg/ml coated, unlabeled peptide (1 mM) 60 min, then biotin-labeled peptide 120 min, room temperature, Streptavidin R-phycoerythrin fluorescence, three independent experiments
From the text: Results are representative of three independent experiments. Error bars represent standard deviation.

[4] = tested on: hGal-2; assay: Binding to hGal-2; design: species or system human; conditions: biotinylated peptide; Supplementary Fig. S2 quoted
[5] = tested on: recombinant hGal-1; conditions: hGal-1 10 μg/ml coated; unlabeled peptide (1 mM) 60 min, then biotin-labeled peptide 120 min, room temperature; Streptavidin R-phycoerythrin fluorescence; three independent experiments

Gal-7: human galectin-7
effects on T cell functions and survival [1]: strong cytotoxic and inhibitory effects on T cell functions and survival

H-IRPGTVLRIRGLV-NH2 [hGal-7(13–25), peptide corresponding to hGal-7 segment between residues 13–25]
disruption of hGal-7 homodimers (in words) ([2]; 0.5 μM recombinant hGal-7, 20 mM potassium phosphate pH 7.1, 1 h at 4°C, native PAGE, Western blot): less potent than hGal-7(129–135) to disrupt hGal-7 homodimers

biotinylated hGal-7(129–135): biotinylated version of hGal-7(129–135), Biotin-NHS coupled via Ahx linker
binding to immobilized hGal-7 [3]: could bind hGal-7
binding to immobilized hGal-7 ([3]; listed as biotin-labeled hGal-7(129–135)): dose-dependent interaction
disruption of hGal-7 homodimers by biotinylated peptide [2]: still capable of specifically inhibiting the formation of hGal-7 homodimers
disruption of hGal-7 homodimers by biotinylated peptide ([2]; listed as biotin-labeled hGaI-7129–135): Disruption of hGaI-7 dimer
binding to hGal-2 [4]: not hGal-1 or hGal-2
binding to immobilized hGal-1 [5]: not hGal-1 or hGal-2
